Read-outs that look alike come from different tables or passages of the source.
How the values were obtained:
[1] = Solubility (HPLC quantification of supernatant); format: physicochemical; settings: thermodynamic from solid, room temperature, stirred about 30 minutes, 100 mg/mL charged
Protocol: Each (10 mg) of the compounds of the present invention and Earlier Application Compound 14 shown in Table 5 was weighed and placed in a sealable container, and water or 5% glucose solution was added to the container in such an amount as to adjust the final concentration to 100 mg/mL. The contents of the container were stirred at room temperature for about 30 minutes, followed by centrifugation. The compound concentration of the supernatant recovered through centrifugation was quantified through high-performance liquid chromatography.

[2] = system: BCRP-gene-transfected human colon cancer HCT116 cells (HCT116/BCRP cells); assay: Effect of overcoming anticancer agent resistance in vivo (oral administration), HCT116/BCRP xenograft with CPT-11; design: species or system BALB/c male nude mice
Protocol: To an inguinal region of each of 6-week-old BALB/c male nude mice (5 mice/group), BCRP-gene-transfected human colon cancer HCT116 cells (HCT116/BCRP cells) (obtained from Dr. Yoshikazu Sugimoto, The Cancer Chemotherapy Center of Japanese Foundation for Cancer Research) were subcutaneously transplanted (2×10^6 cells/0.1 mL/mouse). When the tumor volume as estimated from (1/2)ab^2 (a: longer tumor diameter, b: shorter tumor diameter) reached about 100 to 150 mm^3, each of the compounds of the present invention shown in Tables 1 to 4 and a positive control compound (i.e., Compound 14 ((Z)-2-(3,4-dimethoxy-phenyl)-3-{5-[4-(2-hydroxy-ethyl)-piperazin-1-yl]-thiophen-2-yl}-acrylonitrile hydrochloride)), disclosed in Patent Document 3 (WO 2006/106778)) (hereinafter referred to as Earlier Application Compound 14) was orally administered once a day for nine days (9 times in total). […] The dose of each of the compounds of the present invention was adjusted to 0.20 or 0.40 mmol/kg/day, and that of the positive control compound was adjusted to 0.23 or 0.46 mmol/kg/day. For administration, Compound 3 or 5 of the present invention was dissolved in 5% glucose solution, and Compound 4 or 6 was dissolved in Britton-Robinson buffer. […] A solvent was solely administered to a control group. On day 21 from start of administration, a tumor was extirpated from each mouse and weighed, and the tumor growth inhibition ratio IR (%) was derived from the following equation:
Tumor growth inhibition ratio IR (%)=(1−average tumor weight of each administration group/average tumor weight of control group)×100.

[3] = Solubility (HPLC quantification of supernatant); format: physicochemical; settings: saline or isotonic, thermodynamic from solid; physiological saline, room temperature
[4] = saline or isotonic, 5% glucose solution, read-out: Solubility in 5% glucose
[5] = water, read-out: Solubility in water
[6] = compound 0.20 mmol/kg/day oral once a day for nine days + CPT-11 45 mg/kg/day i.v. day 1, 5, 9, day 21, vs control group
[7] = compound 0.20 mmol/kg/day oral once a day for nine days + CPT-11 45 mg/kg/day i.v. day 1, 5, 9, tumor weighed day 21
[8] = compound 0.40 mmol/kg/day oral once a day for nine days + CPT-11 45 mg/kg/day i.v. day 1, 5, 9, day 21, vs control group
[9] = compound 0.40 mmol/kg/day oral once a day for nine days + CPT-11 45 mg/kg/day i.v. day 1, 5, 9, tumor weighed day 21
[10] = positive control 100 mg/kg/day (0.23 mmol/kg/day) oral for nine days + CPT-11 45 mg/kg/day i.v. day 1, 5, 9, day 21
[11] = positive control 200 mg/kg/day (0.46 mmol/kg/day) oral for nine days + CPT-11 45 mg/kg/day i.v. day 1, 5, 9, day 21

Row | Structure (SMILES) | solubility [1, 4] | solubility [1, 5] | solubility [3] | Tumor growth inhibition ratio IR (%) [2, 6] | Tumor weight (g) Mean ± S.D. [2, 7] | Tumor growth inhibition ratio IR (%) [2, 8] | Tumor weight (g) Mean ± S.D. [2, 9] | also measured
1 | COc1ccc(/C(C#N)=C/c2ccc(N3CCC(OC(=O)CN4CCC(O)CC4)CC3)s2)cc1OC.Cl [Compound 4, (4-hydroxy-piperidin-1-yl)-acetic acid 1-[5-[(Z)-2-cyano-2-(3,4-dimethoxy-phenyl)-vinyl]-thiophen-2-yl]-piperidin-4-yl ester hydrochloride] | – | – | – | 31.8% | 0.89 ± 0.09 g | 46.4% | 0.70 ± 0.11 g | –
2 | COc1ccc(/C(C#N)=C/c2ccc(N3CCC(OC(=O)CN4CCCCCCC4)CC3)s2)cc1OC.CS(=O)(=O)O [Compound 18, azocan-1-yl-acetic acid 1-[5-[(Z)-2-cyano-2-(3,4-dimethoxy-phenyl)-vinyl]-thiophen-2-yl]-piperidin-4-yl ester methanesulfonate] | ≥ 100 mg/mL | ≥ 100 mg/mL | – | – | – | – | – | –
3 | COc1ccc(/C(C#N)=C/c2ccc(N3CCC(OC(=O)CN4CCC(O)CC4)CC3)s2)cc1OC.CS(=O)(=O)O [Compound 6, (4-hydroxy-piperidin-1-yl)-acetic acid 1-[5-[(Z)-2-cyano-2-(3,4-dimethoxy-phenyl)-vinyl]-thiophen-2-yl]-piperidin-4-yl ester methanesulfonate] | – | – | – | 36.9% | 0.82 ± 0.04 g | 41.8% | 0.76 ± 0.09 g | –
4 | COc1ccc(/C(C#N)=C/c2ccc(N3CCC(OC(=O)CN4CCCCC4)CC3)s2)cc1OC.Cl [Compound 3, piperidin-1-yl-acetic acid 1-[5-[(Z)-2-cyano-2-(3,4-dimethoxy-phenyl)-vinyl]-thiophen-2-yl]-piperidin-4-yl ester hydrochloride] | – | – | – | 51.9% | 0.73 ± 0.07 g | 54.7% | 0.65 ± 0.11 g | –
5 | COc1ccc(/C(C#N)=C/c2ccc(N3CCN(CCO)CC3)s2)cc1OC.Cl [EAC 14, (Z)-2-(3,4-dimethoxy-phenyl)-3-{5-[4-(2-hydroxy-ethyl)-piperazin-1-yl]-thiophen-2-yl}-acrylonitrile hydrochloride, reference compound] | 6.6 mg/mL | 6.6 mg/mL | < 1 mg/mL | – | – | – | – | Tumor growth inhibition ratio IR (%) [2, 10]: 23.9%; Tumor weight (g) Mean ± S.D. [2, 10]: 1.04 ± 0.17 g; Tumor growth inhibition ratio IR (%) [2, 11]: 35.6%; Tumor weight (g) Mean ± S.D. [2, 11]: 0.88 ± 0.14 g
6 | COc1ccc(/C(C#N)=C/c2ccc(N3CCC(OC(=O)CN4CCCCC4C)CC3)s2)cc1OC.CS(=O)(=O)O (stereo not drawn) [Compound 12, (2-methyl-piperidin-1-yl)-acetic acid 1-[5-[(Z)-2-cyano-2-(3,4-dimethoxy-phenyl)-vinyl]-thiophen-2-yl]-piperidin-4-yl ester methanesulfonate] | ≥ 100 mg/mL | ≥ 100 mg/mL | 100 mg/mL | – | – | – | – | –
7 | COc1ccc(/C(C#N)=C/c2ccc(N3CCC(OC(=O)CN4CCCC(CO)C4)CC3)s2)cc1OC.CS(=O)(=O)O (stereo not drawn) [Compound 14, (3-hydroxymethyl-piperidin-1-yl)-acetic acid 1-[5-[(Z)-2-cyano-2-(3,4-dimethoxy-phenyl)-vinyl]-thiophen-2-yl]-piperidin-4-yl ester methanesulfonate] | ≥ 100 mg/mL | ≥ 100 mg/mL | 100 mg/mL | – | – | – | – | –

Now from value to compound, other results behind:

Row | solubility [1, 4] | solubility [1, 5] | solubility [3] | Structure (SMILES) | Tumor growth inhibition ratio IR (%) [2, 6] | Tumor weight (g) Mean ± S.D. [2, 7] | Tumor growth inhibition ratio IR (%) [2, 8] | Tumor weight (g) Mean ± S.D. [2, 9] | also measured
8 | ≥ 100 mg/mL | ≥ 100 mg/mL | – | COc1ccc(/C(C#N)=C/c2ccc(N3CCC(OC(=O)CN4CCOCC4)CC3)s2)cc1OC.CS(=O)(=O)O [Compound 22, morpholin-4-yl-acetic acid 1-[5-[(Z)-2-cyano-2-(3,4-dimethoxy-phenyl)-vinyl]-thiophen-2-yl]-piperidin-4-yl ester methanesulfonate] | – | – | – | – | –
9 | ≥ 100 mg/mL | ≥ 100 mg/mL | 100 mg/mL | COc1ccc(/C(C#N)=C/c2ccc(N3CCC(OC(=O)CN4CCCCC4)CC3)s2)cc1OC.CS(=O)(=O)O [Compound 5, piperidin-1-yl-acetic acid 1-[5-[(Z)-2-cyano-2-(3,4-dimethoxy-phenyl)-vinyl]-thiophen-2-yl]-piperidin-4-yl ester methanesulfonate] | 50.9% | 0.73 ± 0.12 g | 55.9% | 0.65 ± 0.16 g | –
10 | ≥ 100 mg/mL | ≥ 100 mg/mL | – | COc1ccc(/C(C#N)=C/c2ccc(N3CCC(OC(=O)CN4CCCC4)CC3)s2)cc1OC.CS(=O)(=O)O [Compound 10, pyrrolidin-1-yl-acetic acid 1-[5-[(Z)-2-cyano-2-(3,4-dimethoxy-phenyl)-vinyl]-thiophen-2-yl]-piperidin-4-yl ester methanesulfonate] | – | – | – | – | –
11 | ≥ 100 mg/mL | ≥ 100 mg/mL | – | COc1ccc(/C(C#N)=C/c2ccc(N3CCC(OC(=O)CN4CCCCCC4)CC3)s2)cc1OC.CS(=O)(=O)O [Compound 16, azepan-1-yl-acetic acid 1-[5-[(Z)-2-cyano-2-(3,4-dimethoxy-phenyl)-vinyl]-thiophen-2-yl]-piperidin-4-yl ester methanesulfonate] | – | – | – | – | –
12 | ≥ 100 mg/mL | ≥ 100 mg/mL | 100 mg/mL | COc1ccc(/C(C#N)=C/c2ccc(N3CCC(OC(=O)CN4CCN(C)CC4)CC3)s2)cc1OC.CS(=O)(=O)O [Compound 20, (4-methyl-piperazin-1-yl)-acetic acid 1-[5-[(Z)-2-cyano-2-(3,4-dimethoxy-phenyl)-vinyl]-thiophen-2-yl]-piperidin-4-yl ester methanesulfonate] | – | – | – | – | –
13 | ≥ 100 mg/mL | ≥ 100 mg/mL | – | COc1ccc(/C(C#N)=C/c2ccc(N3CCC(OC(=O)CN4CCC4)CC3)s2)cc1OC.CS(=O)(=O)O [Compound 8, azetidin-1-yl-acetic acid 1-[5-[(Z)-2-cyano-2-(3,4-dimethoxy-phenyl)-vinyl]-thiophen-2-yl]-piperidin-4-yl ester methanesulfonate] | – | – | – | – | –

Source: US20100249089A1, “ABCG2 INHIBITOR” (KABUSHIKI KAISHA YAKULT HONSHA, priority 2007, published 2010)
